The results in this text go back to patent US10463669B2, “Composition for treating or preventing liver cancer” (Seoul National University R&DB Foundation, priority 2016, dated 2019).

Some results are limits rather than exact numbers.

For assay [1], the system named is THLE-3 cells. The assay can be described thus: Cell proliferation / cell viability, MTS assay. It is filed as cell-based, human.
Procedure: THLE-3 cell line (immortalized human liver endothelial cell line produced by infection with SV40 large T antigen) was obtained from ATCC (American Type Culture Collection). Cell line authentication by KCLB and ATCC was carried out by using DNA fingerprinting as a short tandem repeat analysis. All cell lines were tested for mycoplasma contamination. […] As it has been recommended by the ATCC manual, THLE-3 cells were cultured in BEGM (Lonza) medium complemented with 10% fetal bovine serum in a humidified 5% CO2 incubator at 37° C.
As it has been described before (10), the cell viability was measured by using Cell Titer 96 MTS (Promega). Cells were sewn in an amount of 500 to 1000 cells per well, and then treated for 96 hours at a pharmaceutical concentration as described in each graph. Each analysis was repeated 3 times at least. After plotting the data, IC50 values were obtained by using GraphPad software. By using Flexstation 3 multimode plate reader (Molecular Devices), optical density showing formazan production was measured at 490 nm.
The subject of assay [2] is TERT expression in HCC cell lines (Huh7 and Hep3B). In words: TERT expression, quantitative real time-PCR and immunoblot. Type of assay: cell-based, human. On the procedure: (§1) Medium was exchanged every day, and the aforementioned cells were cultured for 4 days in 300 μmol/L hydrogen peroxide (H2O2) (Sigma Aldrich; H1009). In several experiments, the cells were treated for 1 hour with 5 mmol/L N-acetylcysteine (NAC) (Sigma Aldrich; A7250), 25 μmol/L idelalisib (LC Laboratoties, Woburn, Mass., USA; I-7447), 25 μmol/L perifosine (LC Laboratoties, Woburn, Mass., USA; P-6522), or 30 μmol/L GSK3β inhibitor (GSK3β inhibitor XI) (Santa Cruz; sc-204770) (31) before adding H2O2. Furthermore, sterilized distilled water (pH 7.0) was used as a negative control (i.e., mock treatment).
(§2) PCR was carried out by using TOPrealm qPCR 2×PreMIX (SYBR Green with high ROX) (Enzynomics, Daejeon, Korea; RT501M) and ABI Prism 7300 thermal cycler (Applied Biosystems, Foster City, Calif., USA). […] To examine the primer specificity, a dissociation step was additionally included.
(§3) Total 2×10^5 cells were boiled for 5 minutes in 2×SDS sample buffer (100 mmol/L TrisHCl [pH 6.8], 4% SDS, 0.2% bromophenol blue, 20% glycerol, and 200 mmol/L β-mercaptoethanol), and then subjected to SDS-PAGE and Western blotting. To detect the TERT, the cells were cultured in 2×SDS sample buffer for 15 minutes at 55° C. TERT-specific (1:300, Rockland Immunochemicals, Gilbertsville, Pa., USA; 600-401-252), AKT-specific (1:1000, Cell Signaling Technology; #9272), phospho-AKT-specific (1:2000, Cell Signaling Technology; #4060), GAPDH-specific (1:2000, Santa Cruz Biotechnology; sc-47724), or β-actin-specific (1:2000, Sigma-Aldrich, St. Louis, Mo., USA; A5441) antibody was diluted in 5% skim milk or bovine serum albumin with TBS-Tween 20, cultured overnight at 4° C., washed, and cultured with HRP-conjugated secondary antibody (1:1000, Abcam; ab131368, or ab131366). By using FUSION-SOLO imager (Vilber Lourmat, Marne La Vallee, France), a chemical fluorescence image was obtained.

The test system of assay [3] is TERT expression in THLE-3 cells. Described as above. It is filed as cell-based, human. On the procedure:
as §1, §2, §3

The test system of assay [4] is telomere length in THLE-3 cells. In words: Telomere length (immunoFISH, Flow FISH, quantitative PCR). Type of assay: cell-based, human. The procedure: Flow FISH was carried out as described before (Rufer N, et al., Nat Biotechnol. 1998; 16: 743-7) with few modifications. The cells were washed twice with cold PBS (phosphate-buffered saline) solution containing 0.1% w/v bovine serum albumin (BSA). Subsequently, the cells were re-suspended in hybridization buffer (70% deionized formamide (Amresco, Solon, Ohio, USA), 20 mmol/L TrisHCl [pH 6.8], 1% BSA, and 1 nmol/L FAM-labeled telomere PNA (telomere peptide nucleic acid) probe ([…], Korea), or 1 nmol/L FAM-labeled centromere PNA probe ([…]). Volume of the hybridization buffer was adjusted to 100 μl per 10^5 cells. Next, each sample was cultured for 10 minutes in a water bath at 85° C. […] Total 15,000 to 20,000 nuclei were analyzed for the each separate culture. Telomere fluorescence intensity of the all nuclei at […] phase of the cell cycle was measured by using BD FACS Calibur flow cytometer (Becton Dickinson, Franklin Lakes, N.J., USA) in which CELLQUEST software is used. […] For quantification of the telomere fluorescence intensity, centromere fluorescence intensity, and 8-oxo-dG fluorescence intensity, the same exposure time was employed. The telomere fluorescence level and 8-oxo-dG fluorescence level of tumor tissues were calculated by division of the fluorescence level in non-tumor tissues corresponding to 5 random fields. […]

The test system of assay [5] is Huh7 cells injected to subcutaneous tissues. The assay can be described thus: In vivo tumorigenicity analysis (xenograft of pre-treated cells). Set-up: species or system KSN/Slc nude mouse. On the procedure:
The animal test was carried out according to the protocol which has been approved by Seoul National University Institutional Animal Care and Use Committee (Approval number: SNU-130225-6). The mouse was kept under usual conditions (i.e., semi-specific pathogen-free state), and allowed to have free access to food and water. For all xenografting studies, 5-week old KSN/Slc nude mouse was used. A mouse with bodyweight of 18 g to 20 g was used for the test. For the xenografting analysis, mock-treated 1×10^5 Huh7, 1×10^5 Huh7 treated only with 300 μmol/L H2O2, and 1×10^5 Huh7 treated with both of 25 μmol/L idelalisib and 300 μmol/L H2O2 were washed, harvested in PBS not containing Ca^2+ or Mg^2+, and subsequently injected in an amount of 0.2 mL to subcutaneous tissues. According to caliper measurement of two vertical diameters of a tumor (i.e., D1 as largest diameter and D2 as smallest diameter), the tumor product was monitored every week. The tumor volume was calculated by […].
Next, an examination was made to see whether or not idelalisib can have in vivo inhibition of tumor growth.

Where [6] appears, read: THLE-3 cells exposed to 150 μmol/L H2O2.

Take `OO` [H2O2, hydrogen peroxide]: the “cells that did not survive” value in assay [1] (setting [6]) stood at 85%. Besides, the “TERT expression increased by” value in assay [2] (HCC cells treated with 300 μmol/L H2O2, compared to control HCC cells not exposed to H2O2) is reported as 40%-45%. For the same compound, the TERT expression level entry in assay [3] (THLE-3 cells after H2O2 treatment) is “no change”. For the same compound, the telomere length result in assay [4] (setting [6]) is “reduction”. For the same compound, in assay [5] (nude mouse injected with 1×10^5 HCC cells treated with H2O2), the “latency time till tumor development” value was 28 days.

With `CC[C@H](Nc1ncnc2nc[nH]c12)c1nc2cccc(F)c2c(=O)n1-c1ccccc1` [idelalisib, 5-fluoro-3-phenyl-2-[(1S)-1-(7H-purin-6-ylamino)propyl]-4(3H)-quinazolinone], in assay [1] (Homo sapiens, THLE3, MTS assay, treated for 96 hours), the IC50 is > 200 µM. The “TERT expression reduced by” value in assay [2] (300 μmol/L H2O2-treated HCC cells plus idelalisib, compared to HCC cells treated with H2O2 only) is 65%-70%. For the same compound, the “ROS-mediated increase in the TERT expression” value in assay [2] (H2O2-treated cells) is on record as “almost completely inhibited”. In addition, the TERT expression result is “reduced” in assay [2] (two HCC cell lines, no H2O2) and “not reduced” in assay [3] (THLE-3 cells). In assay [4] (THLE-3 cells), the telomere length entry is recorded as “not reduced”. Moreover, in assay [5] (nude mouse injected with HCC cells treated with both 300 μmol/L H2O2 and 25 μmol/L idelalisib), the “time without tumor formation” value is > 70 days.
